Test results from patent US12570671B2 (BRISTOL-MYERS SQUIBB COMPANY, priority 2020, dated 2026).

Experiments:
Ikaros = Ikaros (Homo sapiens, UniProt Q13422+Q96SW2); assay: Helios Cellular Degradation Assay (Ikaros readout); type: cell-based; set-up: Jurkat cells were plated at 80,000 cells/well; endogenous in cells; host or cells: Jurkat; conditions: Jurkat cells, 72 h incubation, Ikaros-Alexa488 antibody staining, flow cytometry; read-out: Ikaros Jurkat IC50
Description: (§1) Jurkat cells were plated at 80,000 cells/well in 40 μL RPMI+10% FBS in a 384 well cell culture plate prior to using acoustic dispensing technology for adding compound of interest. Cell cultures were incubated for 72 h at 37° C. and 5% C02. In order to facilitate analysis, cell cultures were spun down at 200 rpm for 5 min and the supernatant was discarded. After shaking the plate to dislodge the cell pellet, cells were resuspended in 50 μL of Fixation Buffer (eBioScience FoxP3 buffer set 00-5523-00) for 60 min at room temperature. After centrifuging and discarding the supernatant, cells were permeabilized with 50 μL of Permeabilization buffer (eBioScience FoxP3 buffer set 00-5523-00) for 10 min at room temperature. Following permeabilization, cells were spun down and the supernatant was replaced with 20 μL fluorescently labelled antibodies against Helios, Ikaros and Aiolos or corresponding Isotype controls in 1× Permeabilization buffer (Ikaros-Alexa488 [Biolegend, Cat #368408, 1:50], Helios-PE [CST, Cat #29360, 1:50], Aiolos-Alexa647 [Biolegend, Cat #371106Biolegend, 1:25]) and staining reactions were incubated for 1 h at room temperature; protected from light. […] Stained cells were resuspended in 25 μL of flow cytometry staining buffer (PBS+0.2% BSA) and analyzed using an Intellicyt Ique Plus flow cytometer.

Helios = Helios (Homo sapiens, UniProt Q96SW2+Q9UKS7); assay: Helios Cellular Degradation Assay (Helios readout); type: cell-based; set-up: Jurkat cells were plated at 80,000 cells/well; endogenous in cells; host or cells: Jurkat; conditions: Jurkat cells, 72 h incubation, Helios-PE antibody staining, flow cytometry; read-out: Helios Jurkat IC50
Description: as §1

Sequence of Helios (Q9UKS7 whole entry): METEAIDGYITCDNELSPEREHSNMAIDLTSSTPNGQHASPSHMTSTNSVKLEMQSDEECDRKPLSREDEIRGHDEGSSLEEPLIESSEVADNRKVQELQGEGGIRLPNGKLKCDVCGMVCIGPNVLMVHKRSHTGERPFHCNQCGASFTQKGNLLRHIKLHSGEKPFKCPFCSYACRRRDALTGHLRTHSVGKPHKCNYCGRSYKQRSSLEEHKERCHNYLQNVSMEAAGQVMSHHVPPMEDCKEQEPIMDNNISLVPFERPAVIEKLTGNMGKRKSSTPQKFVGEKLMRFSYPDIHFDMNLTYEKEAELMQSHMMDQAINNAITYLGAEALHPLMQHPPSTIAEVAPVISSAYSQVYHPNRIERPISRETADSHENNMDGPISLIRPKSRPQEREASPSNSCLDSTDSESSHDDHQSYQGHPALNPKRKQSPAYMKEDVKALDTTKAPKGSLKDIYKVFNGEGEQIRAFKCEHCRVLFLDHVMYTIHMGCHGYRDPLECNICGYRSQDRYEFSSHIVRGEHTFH
Sequence of Helios (Q96SW2 whole entry): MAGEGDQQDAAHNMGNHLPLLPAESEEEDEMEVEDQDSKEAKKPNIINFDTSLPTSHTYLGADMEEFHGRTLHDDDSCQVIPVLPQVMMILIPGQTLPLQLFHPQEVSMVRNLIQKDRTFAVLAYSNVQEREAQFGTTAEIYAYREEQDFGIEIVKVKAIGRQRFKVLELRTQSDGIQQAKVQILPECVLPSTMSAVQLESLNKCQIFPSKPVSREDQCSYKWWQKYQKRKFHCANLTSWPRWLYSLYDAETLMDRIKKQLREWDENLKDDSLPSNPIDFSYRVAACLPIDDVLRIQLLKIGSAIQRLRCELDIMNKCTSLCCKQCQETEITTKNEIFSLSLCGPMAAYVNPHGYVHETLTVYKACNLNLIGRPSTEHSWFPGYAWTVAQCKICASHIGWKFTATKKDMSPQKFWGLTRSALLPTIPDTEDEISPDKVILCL
Sequence of Helios (Q16531 whole entry partner): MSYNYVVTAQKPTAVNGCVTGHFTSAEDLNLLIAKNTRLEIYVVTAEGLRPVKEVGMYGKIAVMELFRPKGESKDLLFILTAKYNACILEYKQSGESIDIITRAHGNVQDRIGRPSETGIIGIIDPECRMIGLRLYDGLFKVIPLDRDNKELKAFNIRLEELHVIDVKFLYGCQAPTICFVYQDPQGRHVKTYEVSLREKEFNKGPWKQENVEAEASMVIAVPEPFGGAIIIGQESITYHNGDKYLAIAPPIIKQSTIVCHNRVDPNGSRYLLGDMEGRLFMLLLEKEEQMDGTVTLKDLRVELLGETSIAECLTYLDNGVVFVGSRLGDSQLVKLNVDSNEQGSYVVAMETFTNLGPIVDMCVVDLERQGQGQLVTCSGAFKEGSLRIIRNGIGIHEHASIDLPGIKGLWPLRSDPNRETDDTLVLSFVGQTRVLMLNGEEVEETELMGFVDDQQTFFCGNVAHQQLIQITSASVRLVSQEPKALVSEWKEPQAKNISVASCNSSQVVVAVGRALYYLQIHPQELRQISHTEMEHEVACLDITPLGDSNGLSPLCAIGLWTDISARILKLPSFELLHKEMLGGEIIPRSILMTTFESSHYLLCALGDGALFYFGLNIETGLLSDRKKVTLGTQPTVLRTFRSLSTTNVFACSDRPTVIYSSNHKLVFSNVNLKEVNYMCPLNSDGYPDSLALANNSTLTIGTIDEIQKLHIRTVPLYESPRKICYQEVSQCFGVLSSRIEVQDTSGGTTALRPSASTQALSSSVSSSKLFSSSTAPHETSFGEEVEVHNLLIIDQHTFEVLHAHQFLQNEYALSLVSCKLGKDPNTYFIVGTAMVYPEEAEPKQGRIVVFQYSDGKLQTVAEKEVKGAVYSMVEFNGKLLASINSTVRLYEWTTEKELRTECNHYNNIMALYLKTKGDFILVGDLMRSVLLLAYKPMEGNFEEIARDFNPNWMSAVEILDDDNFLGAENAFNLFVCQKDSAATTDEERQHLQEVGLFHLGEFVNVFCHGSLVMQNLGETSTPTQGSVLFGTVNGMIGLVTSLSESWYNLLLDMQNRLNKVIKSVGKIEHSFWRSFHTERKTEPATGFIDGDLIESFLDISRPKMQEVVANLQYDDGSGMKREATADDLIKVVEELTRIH
Sequence of Ikaros (Q13422 whole entry): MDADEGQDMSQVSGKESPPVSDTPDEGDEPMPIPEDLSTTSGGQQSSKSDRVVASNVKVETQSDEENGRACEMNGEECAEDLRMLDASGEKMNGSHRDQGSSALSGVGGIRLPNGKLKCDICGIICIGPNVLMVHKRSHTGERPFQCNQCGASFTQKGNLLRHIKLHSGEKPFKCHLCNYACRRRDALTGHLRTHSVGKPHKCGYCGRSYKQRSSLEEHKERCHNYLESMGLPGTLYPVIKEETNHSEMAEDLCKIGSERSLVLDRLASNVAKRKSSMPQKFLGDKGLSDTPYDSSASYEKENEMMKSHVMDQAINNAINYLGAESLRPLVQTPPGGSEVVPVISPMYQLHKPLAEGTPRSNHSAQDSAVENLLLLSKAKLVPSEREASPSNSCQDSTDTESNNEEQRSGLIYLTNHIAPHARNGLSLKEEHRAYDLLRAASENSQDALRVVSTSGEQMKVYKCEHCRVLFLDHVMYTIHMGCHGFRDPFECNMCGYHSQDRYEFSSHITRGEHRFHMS
Sequence of Ikaros (Q96SW2 whole entry): as the sequence (Q96SW2 whole entry) above
Sequence of Ikaros (Q16531 whole entry partner): as the sequence (Q16531 whole entry partner) above

Compound: O=C1CCC(N2Cc3cc(-c4cc(COCc5ccccc5)ccn4)ccc3C2=O)C(=O)N1 (centres unmarked) [Example 154]
- DC50 (Ikaros): ≥ 10 µM
- DC50 (Helios): 3.98 µM
